Consider 7 compounds from paper PMC2860993 (PLoS ONE, 2010).

Where two headings read alike, the source gives them in different places.

A short description of data set [1]: Cellular cytotoxicity, CellTiter-Glo Luminescent Cell Viability Assay. Format: cell-based. The conditions noted are these: human. As to the method:
Human Foreskin Fibroblasts (HFF) passage 12–16 and human lung fibroblasts (HEL) passage 8–12 (from ATCC) were maintained in DMEM containing 10% fetal bovine serum and used for infections with the viruses. Cells in concentrations of 5×10^4 and 1×10^4 were seeded 24 hours prior to infection on each well of 24-and 96-well plates respectively.
In general terms: Cellular ATP, detected with luciferase, serves as a proxy for viable cell number.

Data set [2] has as its system recombinant luciferase-expressing CMV (Towne). Kind of data set: microbe, parasite or virus in culture. It counts as cell-based, human CMV. To be noted: for Selectivity index (SI): ratio between CC50 and EC50. As to the method:
Human Foreskin Fibroblasts (HFF) passage 12–16 and human lung fibroblasts (HEL) passage 8–12 (from ATCC) were maintained in DMEM containing 10% fetal bovine serum and used for infections with the viruses.
The CMV strains used for infections were the highly-passaged Towne virus, and a clinical isolate obtained from the urine of a neonate with congenital CMV infection (SB) and passaged once in tissue culture. […] Initial experiments were performed using a recombinant human CMV-green fluorescent protein (GFP) virus, derived from Towne strain. This virus has a 9-kb deletion from the dispensable unique short (US) region from US1 to US12, and instead contains the bacterial artificial chromosome sequences and a GFP expression cassette. […] A recombinant virus expressing luciferase reporter gene under the control of UL99 (pp28) late promoter was generated by insertion of the reporter gene between the US9 and US10 ORFs in the Towne genome.
Towne-GFP, Towne–luciferase, and SB viruses were used in these assays. HFF or HEL were grown to subconfluent monolayers and infected with the CMV viruses at MOI 0.1 to 3. […] The concentration of each compound was calculated and adjusted by volume such that it was constant throughout the experiment. Following 90 minute incubation, media was replaced with fresh media containing the drug used. Infected and treated cells were incubated at 37°C in a 5% CO2 atmosphere for 3–10 days depending on the virus and the anti-viral assay. The recombinant luciferase-expressing virus was incubated for 72 hours, the GFP virus was incubated for 5 days, and the clinical isolate for 10 days. All experiments were subsequently repeated with compounds added to wells just after viral inoculation.

Another data set relates to Toxoplasmosis. Kind of data set: Anti-toxoplasmosis activity of compounds in supernatants of CMV infected cells. To be noted: Human betaherpesvirus 5; supernatants of CMV infected cells at 3–5 days post infection. It counts as cell-based, Toxoplasma gondii. The text has this:
To confirm that the difference in anti-CMV activity between monomers and dimers was not a result of instability of the monomers in tissue culture, we determined the anti-toxoplasmosis activity of these compounds in the supernatants of CMV infected cells at 3–5 days post infection.

Data set [3] deals with CMV IE1 protein expression. Kind of data set: Western blot for CMV immediate early protein IE1. Format: cell-based, human CMV. The conditions noted are these: for expression of IE1 and GFP: 100 µM, Towne-GFP, HFF, day 5 post infection; for IE1 expression: SB clinical isolate. On the procedure: Monoclonal antibodies to CMV immediate early proteins IE-1 and IE-2 (MAb810) and to cellular β-actin were purchased from Millipore (Billerica, MA). Confluent cells were infected with CMV in the presence of artemisinin compounds. At the indicated times cells were harvested in sample buffer (RIPA buffer, Tris 50 mM, Nacl 150 mM, SDS 0.1%, Na Deoxycholate 0.5%, NP40 1%, and protease inhibitor cocktail), boiled and loaded onto SDS-PAGE. Proteins were separated by electrophoresis and transferred to nitrocellulose membrane. After blocking, blots were probed with primary antibody (1∶3,000) overnight at 4°C in phosphate-buffered saline, and Tween. After washing 3 times, blots were probed with HRP-conjugated anti-mouse (Sigma), 1∶5,000 for 1 hour at room temperature. Blots were washed three times in phosphate-buffered saline/Tween, and then developed by enhanced chemiluminescence according to manufacturer protocol.
The expression of CMV immediate early (IE) protein was tested by western blot to determine whether artemisinins' inhibition of CMV replication occurs early in the virus life cycle. […] Further evidence for the early effect of artemisinins on IE1 protein expression was obtained with the clinical isolate (SB, Fig. 5b).
Western blot for IE1 and GFP performed at day 5 post infection. […] Western blot for IE1 was performed at 12 hr (MOI = 3), 24 hr and 48 hr (MOI = 1) post infection.
(In general: A western blot detects proteins with antibodies after separation by electrophoresis.)

The test system of the next data set is CMV clinical isolates. The arrangement: method as in PMID 11976732. To be noted: 11.1 µM ref 19; cited from earlier work.
For data set [4], the system named is recombinant luciferase-expressing CMV. Kind of data set: Plaque reduction assay in human embryonic lung cells. It counts as cell-based, human CMV. The conditions noted are these: 10 µM; HEL cells; luciferase virus; 10 days. On the procedure: For plaque reduction assay, human embryonic lung cells were seeded into six-well plates and incubated at 37°C one day prior to infection with the recombinant luciferase-expressing CMV. Serial dilutions of GCV, artesunate and artefanilide were used. The virus was diluted to a desired concentration which gave 50–60 plaques per well. Medium was aspirated from the wells, and 0.2 ml of virus suspension was added to each well in triplicates. Plates were incubated for 90 minutes with shaking every 10 min, thereafter drugs were added and a methylcellulose overlay applied to each well. After incubation for 10 days, cells were stained with crystal violet. The stain was aspirated, wells were washed with phosphate-buffered saline, and plaques were counted.
(In a plaque reduction assay, fewer plaques than in the control indicate reduced infectivity or spread.)

Setting [5] is: Human betaherpesvirus 5, read-out: EC50 (µM) - CMV.
Setting [6] is: drug concentration that leads to 50% cellular cytotoxicity, mean and SD, at least five independent experiments, read-out: CC50.

`C[C@H]1[C@@H](CCC(=O)Nc2ccc(F)cc2)O[C@@H]2O[C@@]3(C)CC[C@H]4[C@H](C)CC[C@@H]1[C@@]24OO3` [Artefanilide (3), artefanilide]: it took 44.9 ± 3.4 µM to reach half-maximal cytotoxicity in data set [1] (CC50). The EC50 (as a rule, the concentration giving half of the maximal effect) in data set [2] (Human betaherpesvirus 5, 72 h) came to 8.1 ± 2.2 µM. The “Selectivity index (SI)” value in data set [2] was found to be 5.5±1.6.

Take `CO[C@H]1O[C@@H]2O[C@@]3(C)CC[C@H]4[C@H](C)CC[C@@H]([C@H]1C)[C@@]24OO3` [Artemether (2c), artemether]: in data set [1], half-maximal cytotoxicity (CC50) was put at 18.4 ± 7.5 µM. Moreover, the EC50 was determined as 0.58 ± 0.22 µM in the data set with Toxoplasmosis; 5.3 ± 2.7 µM in data set [2] (Human betaherpesvirus 5, 72 h); 5.1 ± 2.1 µM in data set [2] (setting [5]). The “Selectivity index (SI)” value in data set [2] came out at 3.5±2.2.

`C[C@@H]1CC[C@H]2[C@@H](C)C(=O)O[C@@H]3O[C@@]4(C)CC[C@@H]1[C@]32OO4` [Artemisinin (1), artemisinin]: in data set [1] (setting [6]), the CC50 (as a rule, the concentration that lowers cell viability or growth by half) was 72.4 ± 15.7 µM. The EC50 with Toxoplasmosis is 4.1 ± 1.1 µM; in data set [2] (Human betaherpesvirus 5, 72 h), 16.8 ± 4 µM; in data set [2] (setting [5]), 15.7 ± 4.5 µM. Besides, the results for the “expression of IE1 and GFP” value in data set [3] (MOI of 0.1) and in data set [3] (MOI of 0.5) were “undetectable” and “decreased”, respectively.

For `C[C@H]1[C@H](OC(=O)CCC(=O)O)O[C@@H]2O[C@@]3(C)CC[C@H]4[C@H](C)CC[C@@H]1[C@@]24OO3` [Artesunate (2d), artesunate], the CC50 in data set [1] (setting [6]) was 77.5 ± 14.4 µM. Moreover, the EC50 in the data set on Toxoplasmosis came out at 3.2 ± 0.8 µM; in data set [2] (Human betaherpesvirus 5, 72 h), 18.5 ± 5.2 µM; in data set [2] (setting [5]), 17.2 ± 3.4 µM. Also, the “in-vitro inhibition of clinical isolates” value in the data set with CMV clinical isolates was 50–80%. Moreover, the “Selectivity index (SI)” value in data set [2] was 4.2±2.2.

As to `C[C@H]1[C@@H](CC(CO)C[C@H]2O[C@@H]3O[C@@]4(C)CC[C@H]5[C@H](C)CC[C@@H]([C@H]2C)[C@@]35OO4)O[C@@H]2O[C@@]3(C)CC[C@H]4[C@H](C)CC[C@@H]1[C@@]24OO3` (some centres unmarked) [Dimer primary alcohol (4), dimer primary alcohol], the CC50 in data set [1] is 57 ± 2.3 µM. The EC50 worked out at 0.4 ± 0.15 µM with Toxoplasmosis; 0.15 ± 0.02 µM in data set [2] (Human betaherpesvirus 5, 72 h); 0.16 ± 0.04 µM in data set [2] (setting [5]). The IE1 expression result was “significantly reduced” in data set [3] (1 µM, MOI = 1, 24 and 48 hr); “inhibition of IE1 expression” in data set [3] (1 µM, MOI = 3, 12 hours post infection). For the same compound, the “Selectivity index (SI)” value in data set [2] worked out at 380±53.

With `C[C@H]1[C@@H](CC(C[C@H]2O[C@@H]3O[C@@]4(C)CC[C@H]5[C@H](C)CC[C@@H]([C@H]2C)[C@@]35OO4)CS(=O)(=O)c2ccc(COC(=O)N(C)C)cc2)O[C@@H]2O[C@@]3(C)CC[C@H]4[C@H](C)CC[C@@H]1[C@@]24OO3` (some centres unmarked) [Dimer sulfone carbamate (6), dimer sulfone dimethyl carbamate], the CC50 in data set [1] amounted to 28.1 ± 9.6 µM. Further, the EC50 in data set [2] (Human betaherpesvirus 5, 72 h) stood at 0.06 µM. Besides, the “selectivity relative to GCV” value in data set [2] (comparison of SI, Table 1) is “approximately 10 times”. Besides, in data set [2], the “Selectivity index (SI)” value is listed as 508±173.

As to `Nc1nc(O)c2ncn(COC(CO)CO)c2n1` [GCV, Ganciclovir], in data set [1] (setting [6]), the CC50 came to 247 ± 33.4 µM. In data set [4], the “reduction in plaque formation” value was 80%. Moreover, the IE1 expression entry in data set [3] (10 µM, MOI = 1, 24 and 48 hr) was “not affected”. Also, in data set [2] (Human betaherpesvirus 5, 72 h), the EC50 turned out to be 5.6 ± 0.2 µM.
